Melting point and MIC data for four molecules are collected here from US8129544B2, “1-substituted-4-nitroimidazole compound and method for preparing the same” (Otsuka Pharmaceutical Co., Ltd., priority 2002, dated 2012).

Converted amounts (≈) assume the structure as drawn.

In data set [1] the test system is Mycobacterium tuberculosis H37RV. Nature of the data set: Antibiotic test by using an agar plate dilution method. Particulars: 336 h, Culture medium 7H11, inoculum about 10^6 CFU/ml (5 μl), cultivated at 37° C. for 14 days, read-out: Minimum inhibitory concentration. The format is cell-based.

Turning to `C[C@]1(Cn2cc([N+](=O)[O-])nc2Br)CO1`, the melting point (as a rule, the temperature, or range, at which the solid turns liquid) is 93 to 94 °C. Molecule `C[C@]1(Cn2cc([N+](=O)[O-])nc2Cl)CO1` had a melting point of 65.5 to 67 °C. The same measure, in the same setting: the figure for `C[C@@]1(Cn2cc([N+](=O)[O-])nc2Br)CO1` is 93 to 94 °C.

In turn, `C[C@]1(CN2CCN(c3ccc(OC(F)(F)F)cc3)CC2)Cn2cc([N+](=O)[O-])nc2O1` [Reference Example 7, (S)-2-[4-(4-trifluoromethoxyphenyl)piperazin-1-ylmethyl]-2-methyl-6-nitro-2,3-dihydroimidazo[2,1-b]oxazole] displayed a melting point of 129 to 130 °C. The MIC in data set [1] worked out at 0.024 µg/mL (≈ 0.0562 µM).
